We go through 8 molecules from PubChem BioAssay AID624129 (Sanford-Burnham Center for Chemical Genomics, 2012).

Common to all, as to experiment: CXCR6 receptor antagonists, dose response, cell-based, beta-arrestin, DiscoveRx, APJ panel, uHTS hits (AID 624129)
Assay [1] addresses Apelin receptor (Homo sapiens) (UniProt P35414). The settings on record: CXCR6 beta-arrestin (DiscoveRx) antagonist cell assay, APJ.
For assay [2], the target named is C-X-C chemokine receptor type 6 (Homo sapiens) (UniProt O00574). Particulars: CXCR6 beta-arrestin (DiscoveRx) antagonist cell assay; for inhibition: CXCR6, run 1, dose range 2, at 80 µM (top of the series).
Assay [3] deals with C-C chemokine receptor type 6 (Homo sapiens) (UniProt P51684). Particulars: CXCR6 beta-arrestin (DiscoveRx) antagonist cell assay.
Assay [4] has as its target Beta-galactosidase (Escherichia coli) (UniProt Q8VNN2). The settings on record: CXCR6 beta-arrestin (DiscoveRx) antagonist cell assay, b-galactosidase.
The mark [5] stands for this setting: dose range 1, mean IC50 across replicates.
The mark [6] stands for this setting: CXCR6, dose range 1, mean IC50 across replicates.
Setting [7] is: CCR6, dose range 1, mean IC50 across replicates.

Structures are written as SMILES. Active and inactive are the calls of the source. No rule for the calls is given here.

Sequence of C-X-C chemokine receptor type 6 (Homo sapiens) (O00574 whole entry, looked up): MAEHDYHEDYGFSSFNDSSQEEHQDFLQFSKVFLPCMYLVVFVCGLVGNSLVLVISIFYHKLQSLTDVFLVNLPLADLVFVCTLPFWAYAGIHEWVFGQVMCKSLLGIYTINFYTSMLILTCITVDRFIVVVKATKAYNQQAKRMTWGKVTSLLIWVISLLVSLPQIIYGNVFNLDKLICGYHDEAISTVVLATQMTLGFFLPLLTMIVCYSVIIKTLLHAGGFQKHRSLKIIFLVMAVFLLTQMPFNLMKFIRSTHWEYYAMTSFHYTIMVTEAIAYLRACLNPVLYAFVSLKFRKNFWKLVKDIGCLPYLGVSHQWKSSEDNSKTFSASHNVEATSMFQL
Sequence of Beta-galactosidase (Escherichia coli) (Q8VNN2 whole entry, looked up): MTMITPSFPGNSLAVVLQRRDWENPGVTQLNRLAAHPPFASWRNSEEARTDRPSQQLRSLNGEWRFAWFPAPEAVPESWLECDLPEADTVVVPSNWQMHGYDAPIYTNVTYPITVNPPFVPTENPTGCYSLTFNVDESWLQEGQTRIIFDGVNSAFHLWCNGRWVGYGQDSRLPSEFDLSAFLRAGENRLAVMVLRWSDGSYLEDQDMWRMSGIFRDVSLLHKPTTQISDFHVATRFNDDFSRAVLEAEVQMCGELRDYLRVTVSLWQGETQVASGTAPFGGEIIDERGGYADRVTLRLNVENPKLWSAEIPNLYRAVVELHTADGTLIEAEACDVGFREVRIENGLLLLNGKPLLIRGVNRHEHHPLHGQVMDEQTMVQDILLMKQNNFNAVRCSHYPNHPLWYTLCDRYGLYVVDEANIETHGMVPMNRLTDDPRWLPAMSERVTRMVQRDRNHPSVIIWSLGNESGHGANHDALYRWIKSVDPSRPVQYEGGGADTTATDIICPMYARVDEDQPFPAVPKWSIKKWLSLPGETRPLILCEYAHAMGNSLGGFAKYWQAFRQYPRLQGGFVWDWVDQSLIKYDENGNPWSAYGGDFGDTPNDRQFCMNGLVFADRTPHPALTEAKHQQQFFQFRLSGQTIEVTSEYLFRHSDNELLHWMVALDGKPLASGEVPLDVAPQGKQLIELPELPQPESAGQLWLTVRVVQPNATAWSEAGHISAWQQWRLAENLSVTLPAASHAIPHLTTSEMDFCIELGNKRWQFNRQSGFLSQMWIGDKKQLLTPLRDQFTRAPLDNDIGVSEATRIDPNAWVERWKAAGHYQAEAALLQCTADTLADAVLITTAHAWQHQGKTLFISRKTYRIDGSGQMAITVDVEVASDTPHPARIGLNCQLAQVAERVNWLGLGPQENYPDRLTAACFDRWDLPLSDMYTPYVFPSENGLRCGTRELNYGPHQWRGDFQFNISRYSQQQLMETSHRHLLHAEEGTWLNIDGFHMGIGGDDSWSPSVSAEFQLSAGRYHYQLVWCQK

Turning to `O=C1C=CC2(O[C@H](c3ccccc3)[C@@H](c3ccccc3)O2)[C@H](Sc2ccccc2O)C1`, the IC50 was 1.65 µM in assay [1] (dose range 1); 3.05 µM in assay [1] (setting [5]); 5.03 µM in assay [1] (run 2, dose range 1); 2.46 µM in assay [1] (run 3, dose range 1); 8.69 µM in assay [2] (CXCR6, dose range 1); 6.31 µM in assay [2] (setting [6]). Besides, the IC50 in assay [2] (CXCR6, run 2, dose range 1) is 3.94 µM; in assay [3] (CCR6, dose range 1) it was 2.26 µM; in assay [3] (setting [7]), 3.07 µM; in assay [3] (CCR6, run 2, dose range 1), 3.87 µM; in assay [4] (dose range 1) it was > 80 µM (inactive); in assay [4] (setting [5]) it was greater than 80 µM. The inhibition in assay [2] came to 121%.

On to `Cn1nc([N+](=O)[O-])nc1Sc1cccc2cccnc12`, for which the IC50 in assay [1] (dose range 1) was 11 µM; in assay [1] (setting [5]), 11.9 µM; in assay [1] (run 2, dose range 1) it was 11.4 µM; in assay [1] (run 3, dose range 1), 13.1 µM; in assay [2] (setting [6]) it was 12.5 µM; in assay [2] (CXCR6, run 1, dose range 2), 11.3 µM. For the same molecule, the IC50 in assay [2] (CXCR6, run 2, dose range 1) is 14.2 µM; in assay [2] (CXCR6, run 2, dose range 2) it was 9.55 µM; in assay [3] (CCR6, dose range 1) it was 12.1 µM; in assay [3] (setting [7]), 13.7 µM; in assay [3] (CCR6, run 2, dose range 1), 15.2 µM; in assay [4] (dose range 1), > 80 µM (inactive). In addition, the IC50 in assay [4] (setting [5]) is greater than 80 µM. For the same molecule, the IC50 result in assay [2] (CXCR6, dose range 1) is “inactive”.

Take `O=S(=O)(Nc1cccc2cccnc12)c1ccccc1`: the IC50 in assay [1] (dose range 1) was 6.46 µM; in assay [1] (setting [5]), 9.91 µM; in assay [1] (run 2, dose range 1), 10.7 µM; in assay [1] (run 3, dose range 1), 12.5 µM; in assay [2] (setting [6]), 14.5 µM; in assay [2] (CXCR6, run 2, dose range 1) it was 14.5 µM. For the same molecule, the IC50 in assay [3] (CCR6, dose range 1) was 7.66 µM; in assay [3] (setting [7]), 9.73 µM; in assay [3] (CCR6, run 2, dose range 1), 11.8 µM; in assay [4] (dose range 1), > 80 µM (inactive); in assay [4] (setting [5]) it was greater than 80 µM. The IC50 entry in assay [2] (CXCR6, dose range 1) is “inactive”. Moreover, the inhibition in assay [2] was 116%.

On to `CCN1/C(=C\C=C2\C(=O)N(c3ccccc3)C(=S)N2C)Sc2ccccc21`, for which the IC50 in assay [1] (dose range 1) is 8.97 µM; in assay [1] (setting [5]), 11.3 µM; in assay [1] (run 2, dose range 1), 13.9 µM; in assay [1] (run 3, dose range 1) it was 11 µM; in assay [2] (CXCR6, dose range 1), 7.42 µM; in assay [2] (setting [6]) it was 6.24 µM. Also, the IC50 in assay [2] (CXCR6, run 2, dose range 1) was 5.05 µM; in assay [3] (CCR6, dose range 1) it was 4.79 µM; in assay [3] (setting [7]) it was 5.43 µM; in assay [3] (CCR6, run 2, dose range 1), 6.07 µM; in assay [4] (dose range 1) it was > 80 µM (inactive); in assay [4] (setting [5]), greater than 80 µM. For the same molecule, the inhibition in assay [2] is 91.3%.

Regarding `Cc1nc2c(-c3ccc(Cl)cc3)c(C)[nH]n2c(=O)c1Cc1ccccc1`, the IC50 in assay [1] (setting [5]) is greater than 80 µM; in assay [1] (run 2, dose range 1), greater than 80 µM; in assay [1] (run 3, dose range 1) it was greater than 80 µM; in assay [2] (CXCR6, dose range 1), > 80 µM (inactive); in assay [2] (setting [6]), greater than 80 µM; in assay [2] (CXCR6, run 2, dose range 1), greater than 80 µM. Moreover, the IC50 in assay [3] (setting [7]) is greater than 80 µM; in assay [3] (CCR6, run 2, dose range 1), greater than 80 µM; in assay [4] (dose range 1), > 80 µM (inactive); in assay [4] (setting [5]), greater than 80 µM. For the same molecule, in assay [2], the inhibition is -28.7%.

As to `COc1ccccc1-c1cc(C(F)(F)F)nc(S(=O)(=O)CCCC(=O)NCc2ccc(F)cc2)n1`, the IC50 is greater than 80 µM in assay [1] (setting [5]); greater than 80 µM in assay [1] (run 2, dose range 1); greater than 80 µM in assay [1] (run 3, dose range 1); > 80 µM (inactive) in assay [2] (CXCR6, dose range 1); greater than 80 µM in assay [2] (setting [6]); greater than 80 µM in assay [2] (CXCR6, run 2, dose range 1). For the same molecule, the IC50 in assay [3] (setting [7]) is greater than 80 µM; in assay [3] (CCR6, run 2, dose range 1), greater than 80 µM; in assay [4] (dose range 1), > 80 µM (inactive); in assay [4] (setting [5]), greater than 80 µM. The inhibition in assay [2] is -37.9%.

In the case of `N#Cc1c(C#N)c(SSc2c(C#N)c(C#N)c(N)n2-c2ccccc2)n(-c2ccccc2)c1N`, the IC50 in assay [1] (setting [5]) was 2.15 µM; in assay [1] (run 2, dose range 1) it was greater than 80 µM; in assay [1] (run 3, dose range 1), 2.15 µM; in assay [2] (setting [6]), 10.7 µM; in assay [2] (CXCR6, run 1, dose range 2), 10.6 µM; in assay [2] (CXCR6, run 2, dose range 1), greater than 80 µM. In addition, the IC50 in assay [2] (CXCR6, run 2, dose range 2) was 10.9 µM; in assay [3] (CCR6, dose range 1), > 80 µM (inactive); in assay [3] (setting [7]) it was greater than 80 µM; in assay [3] (CCR6, run 2, dose range 1), greater than 80 µM; in assay [4] (dose range 1) it was > 80 µM (inactive); in assay [4] (setting [5]), greater than 80 µM.

Regarding `C=C1C(=O)[C@]23C[C@H]1CCC2[C@@]1(C)C(C[C@@H]3O)[C@](C)(C(=O)OC)CC[C@@H]1OC(C)=O` (stereo partly specified), the IC50 in assay [1] (dose range 1) is 9.62 µM; in assay [1] (setting [5]) it was 21.3 µM; in assay [1] (run 2, dose range 1), 8.73 µM; in assay [1] (run 3, dose range 1), 45.6 µM; in assay [2] (CXCR6, dose range 1) it was 7.07 µM; in assay [2] (setting [6]), 7.02 µM. Further, the IC50 is 8.75 µM in assay [2] (CXCR6, run 1, dose range 2); 5.41 µM in assay [2] (CXCR6, run 2, dose range 1); 6.85 µM in assay [2] (CXCR6, run 2, dose range 2); 4.15 µM in assay [3] (CCR6, dose range 1); 4.67 µM in assay [3] (setting [7]); 5.2 µM in assay [3] (CCR6, run 2, dose range 1). Further, the IC50 in assay [4] (dose range 1) was > 80 µM (inactive); in assay [4] (setting [5]), greater than 80 µM.
